In patent publication US10329309B2, “3-(3H-imidazo[4,5-B]pyridin-2-yl)-1H-pyrazolo[4,3-B]pyridines and therapeutic uses thereof” (Samumed, LLC, priority 2015, dated 2019) one finds EC50 data, which are given here for four molecules.

The EC50 is the concentration that produces a half-maximal response. Low readings indicate greater potency, high ones weaker potency.

What all share (assay type): cell-based
For one assay, the system named is IL-6 (THP-1 cells). The assay can be described thus: Inhibition of IL-6 in LPS-stimulated THP-1 monocytes (HTRF). As to conditions: Homo sapiens, LPS 500 ng/mL, IL-6 by HTRF. As for the experimental part:
Human monocyte cell line (THP-1 cells; Catalog # TIB-202, ATCC, Manassas, Va.) were cultured in Roswell Park Memorial Institute (RPMI) 1640 Medium (Catalog #21870-100, Buffalo, N.Y.) with 1% L-glutamine, 1% HEPES, 1% Sodium Pyruvate, 2% Sodium Bicarbonate supplemented with 100 units/mL penicillin, 50 μg/mL streptomycin, 2-mercaptoethanol (0.05 mM) [basal medium] and 10% fetal bovine serum (Catalog #16140089, Life Technologies, Carlsbad, Calif.) at 37° C. and 5% CO2.
THP-1 cells were cultured in basal media with 1% FBS for 24 hours before the start of the assay. Each compound was dissolved in DMSO as a 10 mM stock and used to prepare compound source plates. Serial dilution (1:3, 10-point dose-response curves starting from 10 μM) and compound transfer was performed using the ECHO 550 (Labcyte, Sunnyvale, Calif.) into 384-well white low volume assay plates (Greiner Bio-One) with appropriate DMSO backfill for a final DMSO concentration of 0.1%. THP-1 cells were plated at 5000 cells/well in the 384-well plates and incubated at 37° C. for 2 h. 500 ng/mL of LPS was added after 2 hours and cells were incubated for another 22 hours at 37° C. Plates were spun in a centrifuge for 1 minute at […] and a mixture of anti-IL6 XL665, and anti-IL6 Cryptate diluted in reconstitution buffer (Cisbio Inc.) was added to each well. Following incubation for 3 hrs at room temperature, Homogeneous Time-Resolved Fluorescence (HTRF) was measured using the Envision (Perkin Elmer) at 665 nm and […]. The ratio of fluorescence at 665 nm to 620 nm was used as a readout for IL6 quantification. All samples were processed in duplicate. Readings were normalized to DMSO treated cells and normalized activities were utilized for EC50 calculations using the dose-response log (inhibitor) vs. response -variable slope (four parameters) nonlinear regression feature available in GraphPad Prism 5.0 (or Dotmatics). For EC50 of >10 μM, the percent inhibition at 10 μM is provided.
Background: Time-resolved FRET reads energy transfer from a long-lived donor to a nearby acceptor.

A further assay deals with SW480 colon cancer cells. The assay can be described thus: Cell viability assay (CellTiter-Blue), four days. As to conditions: Homo sapiens, 96 h, CellTiter-Blue cell viability. As for the experimental part:
Representative compounds were screened using the following assay procedure to assess the effect on cell viability as described below.
Each compound was dissolved in DMSO as a 10 mM stock and used to prepare compound source plates. Serial dilution (1:3, 8-point dose-response curves from 10 μM to 0.0045 μM) and compound transfer was performed using the ECHO 550 (Labcyte, Sunnyvale, Calif.) into 96-well clear bottom, black-walled plates (Corning-Costar).
Approximately 2×10^3 SW480 colon cancer cells were seeded into each well and allowed to incubate in the presence or absence of compound for four days at 37° C./5% CO2. Eight replicates of DMSO-treated cells served as controls and cells treated with compound were performed in duplicate.
After incubation, 20 μL of CellTiter-Blue (Promega) was added to each well allowed to incubate for approximately 3 hours. This reagent was a buffered solution which contains resazurin, metabolically active cells were able to reduce rezarurin (blue) into resorufin (pink) which was highly fluorescent. This measured fluorescence was used as a readout for cell viability.
After incubation, the plates were read at Ex 560 nm Em 590 nm (Cytation 3, BioTek). Dose-response curves were generated and EC50 concentration values were calculated using non-linear regression curve fit in the GraphPad Prism (San Diego, Calif.) or Dotmatics' Studies Software (Bishops Stortford, UK). For EC50 of >10 μM, the percent inhibition at 10 μM is provided.
For orientation: The colour change of resazurin is a common sign of viable cells or microbes.

The test system of assay [1] is Wnt activity (Sp5-Luc reporter, SW480 colon carcinoma cells). Nature of the assay: Screening assay for Wnt activity: Sp5-Luc reporter gene assay in SW480 cells. As to conditions: Homo sapiens, overnight incubation, 10-point dose-response from 10 μM. An excerpt:
The screening assay for Wnt activity is described as follows. Reporter cell lines can be generated by stably transducing cancer cell lines (e.g., colon cancer) or primary cells (e.g., IEC-6 intestinal cells) with a lentiviral construct that includes a Wnt-responsive promoter driving expression of the firefly luciferase gene.
SW480 colon carcinoma cells were transduced with a lentiviral vector expressing luciferase with a human Sp5 promoter consisting of a sequence of eight TCF/LEF binding sites. SW480 cells stably expressing the Sp5-Luc reporter gene and a hygromycin resistance gene were selected by treatment with 150 μg/mL of hygromycin for 7 days. These stably transduced SW480 cells were expanded in cell culture and used for all further screening activities. Each compound was dissolved in DMSO as a 10 mM stock and used to prepare compound source plates. Serial dilution (1:3, 10-point dose-response curves starting from 10 μM) and compound transfer was performed using the ECHO 550 (Labcyte, Sunnyvale, Calif.) into 384-well white solid bottom assay plates (Greiner Bio-One) with appropriate DMSO backfill for a final DMSO concentration of 0.1%. For Sp5-Luc reporter gene assays, the cells were plated at 4,000 cells/well in 384-well plates with medium containing 1% fetal bovine serum and incubated overnight at 37° C. and 5% CO2. Following incubation, 20 μl of BrightGlo luminescence reagent (Promega) was added to each well of the 384-well assay plates. The plates were placed on an orbital shaker for 2 min and then luminescence was quantified using the Envision (Perkin Elmer) plate reader. Readings were normalized to DMSO only treated cells, and normalized activities were utilized for EC50 calculations using the dose-response log (inhibitor) vs. response -variable slope (four parameters) nonlinear regression feature available in GraphPad Prism 5.0 (or Dotmatics). For EC50 of >10 μM, the percent inhibition at 10 μM is provided.
(In general: In a reporter assay the amount or activity of a reporter protein is the signal.)

Assay [2] has as its system primary human fibroblasts derived from IPF patients (LL29 cells), α-smooth muscle actin (αSMA). The assay can be described thus: Inhibition of the fibrotic process: TGF-β1-treated primary human fibroblasts from IPF patients, αSMA staining. The note with it: Fibroblast, 96 h, LL29 fibroblasts from IPF patients, TGF-β1 20 ng/mL, 4 days, inhibition of fibrotic process. From the text: Representative compounds were screened using primary human fibroblasts (derived from IPF patients) treated with TGF-β1 to determine their ability to inhibit the fibrotic process.
Primary human fibroblasts derived from IPF patients (LL29 cells) [^1Xiaoqiu Liu, et. al., “Fibrotic Lung Fibroblasts Show Blunted Inhibition by cAMP Due to Deficient cAMP Response Element-Binding Protein Phosphorylation”, Journal of Pharmacology and Experimental Therapeutics (2005), 315(2), 678-687; ^2Watts, K. L., et. al., “RhoA signaling modulates cyclin D1 expression in human lung fibroblasts; implications for idiopathic pulmonary fibrosis”, Respiratory Research (2006), 7(1), 88] were obtained from American Type Culture Collection (ATCC) and expanded in F12 medium supplemented with 15% Fetal Bovine Serum and Penicillin/Streptomycin.
Each compound was dissolved in DMSO as a 10 mM stock and used to prepare compound source plates. Serial dilution (1:2, 11-point dose-response curves from 10 μM to 1.87 nM) and compound transfer was performed using the ECHO 550 (Labcyte, Sunnyvale, Calif.) into 384-well clear bottom assay plates (Greiner Bio-One) with appropriate DMSO backfill for a final DMSO concentration of 0.1%. LL29 cells are plated at 1,500 cells/well in 80 μL/well F12 medium supplemented with 1% Fetal Bovine Serum. One hour after addition of the cells, TGF-β1 (Peprotech; 20 ng/mL) was added to the plates to induce fibrosis (ref. 1 and 2 above). Wells treated with TGF-β1 and containing DMSO were used as controls. Cells were incubated at 37° C. and 5% CO2 for 4 days. Following incubation for 4 days, SYTOX green nucleic acid stain (Life Technologies [Thermo Fisher Scientific]) was added to the wells at a final concentration of 1 μM and incubated at room temperature for 30 min. Cells were then fixed using 4% formaldehyde (Electron Microscopy Sciences), washed 3 times with PBS followed by blocking and permeabilization using 3% Bovine Serum Albumin (BSA; Sigma) and 0.3% Triton X-100 (Sigma) in PBS. Cells were then stained with antibody specific to α-smooth muscle actin (αSMA; Abcam) (ref. 1 and 2 above) in 3% Bovine Serum Albumin (BSA; Sigma) and 0.3% Triton X-100 (Sigma) in PBS, and incubated overnight at 4° C. Cells were then washed 3 times with PBS, followed by incubation with Alexa Flor-647 conjugated secondary antibody (Life Technologies [Thermo Fisher Scientific]) and DAPI at room temperature for 1 hour. Cells were then washed 3 times with PBS and plates were sealed for imaging. αSMA staining was imaged by excitation at 630 nm and emission at 665 nm and quantified using the Compartmental Analysis program on the CellInsight CX5 (Thermo Scientific). Dead or apoptotic cells were excluded from analysis based on positive SYTOX green staining. % of total cells positive for αSMA were counted in each well and normalized to the average of 11 wells treated with TGF-β1 on the same plate using Dotmatics' Studies Software. The normalized averages (fold change over untreated) of 3 replicate wells for each compound concentration were used to create dose-responses curves and EC50 values were calculated using non-linear regression curve fit in the Dotmatics' Studies Software. For EC50 of >10 μM, the percent inhibition at 10 μM is provided.

`CN1CCN(c2ccnc3[nH]c(-c4n[nH]c5ccc(-c6cncc(OCc7ccccc7)c6)nc45)nc23)CC1` [Compound 646, 5-(5-(Benzyloxy)pyridin-3-yl)-3-(7-(4-methylpiperazin-1-yl)-3H-imidazo [4,5-b]pyridin-2-yl)-1H-pyrazolo[4,3-b]pyridine]: the EC50 came to 1500 nM in the assay on IL-6 (THP-1 cells), 1160 nM in the assay on SW480 colon cancer cells, 1810 nM in assay [1] and 1710 nM in assay [2].
Turning to `Cc1ccc(-c2ccnc3[nH]c(-c4n[nH]c5ccc(C6=CCNCC6)nc45)nc23)s1` [Compound 730, 3-(7-(5-Methylthiophen-2-yl)-3H-imidazo[4,5-b]pyridin-2-yl)-5-(1,2,3,6-tetrahydropyridin-4-yl)-1H-pyrazolo[4,3-b]pyridine], the EC50 was 558 nM in the assay on IL-6 (THP-1 cells), 3480 nM in the assay on SW480 colon cancer cells, 3160 nM in assay [1] and 489 nM in assay [2].
In the same order, the values of `Cc1ncc(-c2ccc3[nH]nc(-c4nc5c(-c6cc(F)cc(NCCN(C)C)c6)ccnc5[nH]4)c3n2)n1C` [Compound 781, N^1-(3-(2-(5-(1,2-Dimethyl-1H-imidazol-5-yl)-1H-pyrazolo[4,3-b]pyridin-3-yl)-3H-imidazo[4,5-b]pyridin-7-yl)-5-fluorophenyl)-N^2,N^2-dimethylethane-1,2-diamine] are 638 nM, 927 nM, 620 nM and 4800 nM.
Take `CN(C)CCNc1cc(F)cc(-c2ccnc3[nH]c(-c4n[nH]c5ccc(-c6cncc(OCc7ccccc7)c6)nc45)nc23)c1` [Compound 790, N^1-(3-(2-(5-(5-(Benzyloxy)pyridin-3-yl)-1H-pyrazolo[4,3-b]pyridin-3-yl)-3H-imidazo[4,5-b]pyridin-7-yl)-5-fluorophenyl)-N^2,N^2-dimethylethane-1,2-diamine]: the EC50 in the assay with IL-6 (THP-1 cells) was determined as 4770 nM; with SW480 colon cancer cells, 2220 nM; in assay [1], 2660 nM; in assay [2], 2500 nM.
